# Legend:
# [1] = test system: EL-4 T lymphoma cells; test: Trypan blue exclusion assay, cell viability; assay type: cell-based, mouse; conditions: for Cell viability (%): EL-4 cells
# Procedure: First, in an incubator containing 5 vol % of CO2 at 37° C., EL-4 mouse T lymphoma cells (commercially available from ATCC, Manassas, Va., America) were cultured in the DMEM culture medium (containing 10 wt % of thermally deactivated FBS), and were sub-cultured at a ratio of 1:3.
# Then, at a density of 5×10^5 counts/ml, the T lymphoma cells were bred in a six-well culture dish, and at the 0th minute, brazilin of different concentrations (0.3, 1, 3, 10, or 30 micromole (μM)) was added into the cell culture solution at an amount of 1 μl/ml-cell culture solution. Then, the cells were put into the incubator to be cultured therein. […] During the process of cell culture, the trypan blue exclusion assay was employed to observe effect of the brazilin on the cell viability, results of which are shown in Table 1 and FIG. 1.
# [2] = test system: macrophages, lymphocytes, eosinophils, and neutrophils in bronochial alveolar lavage fluid; test: Immunocyte counts in bronochial alveolar lavage fluid, mice with asthma (OVA); assay type: in vivo; conditions: OVA-sensitized BALB/c mice; for Number of eosinophils (×10^4) / Number of lymphocytes (×10^4) / Number of macrophages (×10^4) / Number of neutrophils (×10^4): i.p. or i.t., bronochial alveolar lavage fluid
# Procedure: (§1) In Example 2, mice with asthma were used to conduct in vivo experiments, and ovalbumin (OVA) was used as an allergen.
# (§2) The mice were sensitized (or challenged) according to the steps shown in FIG. 9 (see Lee et al., Lentiviral-mediated GATA-3 RNAi decreases allergic airway inflammation and hyperresponsiveness. Molecular Therapy, 2008; 16:60-65, which is incorporated herein in its entirety by reference). First, 50 μg OVA (using 2 mg alumina (Alum, Alumlmuject, Pierce Chemical, Rockford, Ill., USA) as an adjuvant) was injected into six to eight-week-old BALB/c female mice (from National Laboratory Animal Center, Taiwan) by intraperitoneal injection (i.p.). At 0th, 14th, and 28th day, the mice were injected with OVA at the same dosage. Before the administration of OVA at the forty-first and the forty-second days, different dosages of brazilin (high dose: 430 μg/mice; low dose: 43 μg/mice) were administrated to the mice by intraperitoneal injection (i.p.) or intratracheal instillation (i.t.). During the fortieth to the forty-second days, 100 μg OVA was dissolved in 40 μl PBS, and was administrated to the mice by intranasal instillation (i.n.) (once everyday, for three days). At the forty-third day, airway hyperresponsiveness of the mice was observed. At the forty-sixth day, the mice were sacrificed and used to conduct the following Experiments E to G During the above procedure, it was observed if any toxicity response arises after the administration of brazilin to the mice. In this experiment, the mice administrated with OVA were used as a positive control, and the mice not administrated with OVA were used as a negative control.
# In Experiment D, after 24 hours from the last administration of OVA into the noses of the mice, the mice were sacrificed, and the blood was collected from the orbital cavities of the mice. Then, a cannula was immediately inserted into the bronchi of the mice, and the lungs of the mice were washed with a 1 ml HBSS buffer solution containing no calcium and magnesium ions three times, and a bronochial alveolar lavage fluid is collected. The fluid was centrifuged at 4° C. and with a revolution speed of 400 g for 10 minutes. Cells obtained after the centrifugation were re-suspended in a 1 ml HBSS buffer solution, and the total cell number was counted with a hemocytometer.
# Then, the cells were fixed on a glass sheet in a way of cytocentrifuged preparations, and the Liu's stain (see Lee et al., Lentiviral-mediated GATA-3 RNAi decreases allergic airway inflammation and hyperresponsiveness. Molecular Therapy. 2008; 16:60-65, which is incorporated herein in its entirety by reference) was carried out to calculate the number of various kinds of cells. The cell number was calculated by counting the number of macrophages, lymphocytes, eosinophils, and neutrophils in 300 cells respectively. The cells were categorized according to their standard morphology, and the invasion of inflammatory cells into the lungs was observed.
# [3] = test system: eotaxin; test: ELISA of eotaxin in bronochial alveolar lavage fluid, mice with asthma (OVA); assay type: in vivo, BALB/c mice; conditions: for Eotaxin concentration (pico-gram/ml): i.p. or i.t., OVA-sensitized BALB/c mice
# Procedure: as §1
# as §2, with “At the forty-sixth day, the mice were sacrificed and used to conduct the following Experiments E to G During the above procedure, it was observed if any toxicity response arises after the administration of brazilin to the mice. In this experiment, the mice administrated with OVA were used as a positive control, and the mice not administrated with OVA were used as a negative control.” left out
# (§3) In Experiment D, after 24 hours from the last administration of OVA into the noses of the mice, the mice were sacrificed, and the blood was collected from the orbital cavities of the mice. […] Cells obtained after the centrifugation were re-suspended in a 1 ml HBSS buffer solution, and the total cell number was counted with a hemocytometer.
# (§4) The bronochial alveolar lavage fluid collected in Experiment E was centrifuged at 4° C. and with a revolution speed of 400 g for 10 minutes. After the supernatant was collected, the expression of eotaxin, IL-4, IL-5, and IFN-γ was analyzed with an ELISA kit (R&D Systems, Inc., USA). […]
# [4] = test system: IFN-γ; test: ELISA of IFN-γ in bronochial alveolar lavage fluid, mice with asthma (OVA); assay type: in vivo, BALB/c mice; conditions: for IFN-γ concentration (pico-gram/ml): i.p. or i.t., OVA-sensitized BALB/c mice
# Procedure: as §1
# as §2, with “At the forty-sixth day, the mice were sacrificed and used to conduct the following Experiments E to G During the above procedure, it was observed if any toxicity response arises after the administration of brazilin to the mice. In this experiment, the mice administrated with OVA were used as a positive control, and the mice not administrated with OVA were used as a negative control.” left out
# as §3, §4
# [5] = test system: IL-4; test: ELISA of IL-4 in supernatant of EL-4 T lymphoma cells; assay type: cell-based, mouse; conditions: EL-4 cells, no PMA + cAMP
smiles,measurement,setting,value
Oc1ccc2c(c1)OC[C@]1(O)Cc3cc(O)c(O)cc3[C@H]21 [brazilin],effect on the growth of EL-4 T lymphoma cells,"[1]; 0.3-30 μM, result in words",no effect
same,cytotoxicity,"[1]; EL-4 T lymphoma cells, 0.3-30 μM, result in words",no cytotoxicity
same,Cell viability (%),"[1]; brazilin 0.3 μM, no PMA + cAMP",102.8 ± 6.895%
same,Cell viability (%),"[1]; brazilin 0.3 μM, with PMA + cAMP",115.9 ± 6.968%
same,Cell viability (%),"[1]; brazilin 1 μM, no PMA + cAMP",106.5 ± 1.190%
same,Cell viability (%),"[1]; brazilin 1 μM, with PMA + cAMP",107.4 ± 3.829%
same,Cell viability (%),"[1]; brazilin 3 μM, no PMA + cAMP",101.5 ± 4.226%
same,Cell viability (%),"[1]; brazilin 3 μM, with PMA + cAMP",109.0 ± 3.764%
same,Cell viability (%),"[1]; brazilin 10 μM, no PMA + cAMP",111.5 ± 5.126%
same,Cell viability (%),"[1]; brazilin 10 μM, with PMA + cAMP",100.8 ± 3.257%
same,Cell viability (%),"[1]; brazilin 30 μM, no PMA + cAMP",98.17 ± 8.439%
same,Cell viability (%),"[1]; brazilin 30 μM, with PMA + cAMP",104.7 ± 2.495%
same,Number of eosinophils (×10^4),[2]; High dose (430 μg/mice),10.52 ± 4.543 ×10^4
same,Number of lymphocytes (×10^4),[2]; High dose (430 μg/mice),0.8106 ± 0.3015 ×10^4
same,Number of macrophages (×10^4),[2]; High dose (430 μg/mice),34.25 ± 4.970 ×10^4
same,Number of neutrophils (×10^4),[2]; High dose (430 μg/mice),0.2178 ± 0.1799 ×10^4
same,Number of eosinophils (×10^4),[2]; Low dose (43 μg/mice),21.39 ± 1.491 ×10^4
same,Number of lymphocytes (×10^4),[2]; Low dose (43 μg/mice),0.7421 ± 0.2902 ×10^4
same,Number of macrophages (×10^4),[2]; Low dose (43 μg/mice),41.67 ± 6.885 ×10^4
same,Number of neutrophils (×10^4),[2]; Low dose (43 μg/mice),0.6476 ± 0.2759 ×10^4
same,number of eosinophils in the lungs of the mice,[2]; result in words,decreased
same,"production of β-chemokine, eotaxin","[3]; BALB/c mice, result in words",inhibited
same,Eotaxin concentration (pico-gram/ml),[3]; High dose (430 μg/mice),12.61 ± 1.334 pico-gram/ml
same,Eotaxin concentration (pico-gram/ml),[3]; Low dose (43 μg/mice),18.64 ± 3.784 pico-gram/ml
same,effect on IFN-γ cytokine of Th1 cells,"[4]; BALB/c mice, result in words",no effect
same,IFN-γ concentration (pico-gram/ml),[4]; High dose (430 μg/mice),4.288 ± 0.868 pico-gram/ml
same,IFN-γ concentration (pico-gram/ml),[4]; Low dose (43 μg/mice),3.598 ± 1.218 pico-gram/ml
same,Concentration of IL-4 (pico-gram/ml),[5]; brazilin 0.3 μM,2.569 ± 0.1160 pico-gram/ml
same,Concentration of IL-4 (pico-gram/ml),[5]; brazilin 1 μM,5.353 ± 1.276 pico-gram/ml
same,Concentration of IL-4 (pico-gram/ml),[5]; brazilin 3 μM,5.469 ± 0.1160 pico-gram/ml
same,Concentration of IL-4 (pico-gram/ml),[5]; brazilin 10 μM,7.093 ± 0.3480 pico-gram/ml
same,Concentration of IL-4 (pico-gram/ml),[5]; brazilin 30 μM,4.715 ± 0.9859 pico-gram/ml

# — patent US8796327B2, “Method for inhibiting production of cytokines of T helper cell type II and/or inhibiting production of chemokines using brazilin” (China Medical University, priority 2010, dated 2014)
